Laboratory results reported in patent US10526345B2, “Compounds as GPR119 agonists” (Mankind Pharma Ltd., priority 2016, dated 2020).
pEC50: −log10 of the molar value.

How the values were obtained:
Male C57BL/6 mice = experiment: Oral glucose tolerance test in C57BL/6 mice; type: in vivo; conditions: 3 mpk and 10 mpk, glucose 2 g/kg
Procedure: (§1) Male C57BL/6 mice (8-10 weeks) were grouped based on basal glucose levels and animals were fasted for 16 hours. Glucose level of each animal was estimated in blood collected from tail vein before animals were dosed orally with 0.5% Tween 80 and 0.5% NaCMC (vehicle control) and compounds at 3 and 10 mpk (n=5). After 30 minutes of compound dosing, blood glucose was again estimated and 2 g/kg/10 ml (20%) of Glucose solution was administered orally to all the animals. Blood glucose was estimated at 15, 30, 60, 90 and 120 minutes time points after glucose administration. Accu-Check active blood glucose meter was utilised for estimation of blood from tail vein.
Glucose reduction observed in animals treated with compounds of present invention is represented in terms of % AUC reduction. A greater glucose reduction in oral glucose tolerance test indicates the compound's efficacy in this rodent species.

hGPR119 = target: T1, hGPR119 (Homo sapiens, UniProt Q8TDV5); experiment: In vitro cyclic AMP assay (Cisbio dynamic 2 HTRF kit) in CHO-hGPR119 cells; type: cell-based; conditions: cAMP; for activation at 1 µM: 1 h, compound at 1 μM, 60 min, read-out: Induction (% induction at 1 μM)
T1 construct: expressed in transfected cells; host or cells: CHO
T1 sequence (Q8TDV5 1-335): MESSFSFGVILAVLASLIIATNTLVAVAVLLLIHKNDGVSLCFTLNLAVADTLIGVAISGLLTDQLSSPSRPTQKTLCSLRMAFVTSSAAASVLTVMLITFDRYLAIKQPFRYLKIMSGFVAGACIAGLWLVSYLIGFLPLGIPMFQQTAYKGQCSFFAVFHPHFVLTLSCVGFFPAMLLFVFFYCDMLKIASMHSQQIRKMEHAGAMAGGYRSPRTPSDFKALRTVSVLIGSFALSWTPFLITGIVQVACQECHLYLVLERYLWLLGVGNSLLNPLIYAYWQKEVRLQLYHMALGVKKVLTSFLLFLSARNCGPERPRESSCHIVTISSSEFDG

Male SD rats = experiment: Oral glucose tolerance test in Sprague-Dawley rats; type: in vivo; conditions: 3 mpk and 10 mpk, glucose 2 g/kg
Procedure: as §1, with “SD rats” for “C57BL/6 mice”
Glucose reduction observed in animals treated with GPR119 agonists is represented in terms of % AUC reduction. A greater glucose reduction in oral glucose tolerance test indicates the compound's efficacy in this rodent species.

| SMILES | glucose reduction (% AUC reduction) in oral glucose tolerance test (Male C57BL/6 mice) | activation at 1 µM (hGPR119) [%] | pEC50 (hGPR119) | glucose reduction (% AUC reduction) in oral glucose tolerance test (Male SD rats) |
| --- | --- | --- | --- | --- |
| CC(C)c1noc(N2CCC([C@H](C)Oc3nc4ccc(-c5ccc(S(C)(=O)=O)nc5)nc4s3)CC2)n1 [Compound 1082, (S)-3-isopropyl-5-(4-(1-((5-(6-(methylsulfonyl)pyridin-3-yl)thiazolo[5,4-b]pyridin-2-yl)oxy)ethyl)piperidin-1-yl)-1,2,4-oxadiazole] | significant dose dependent glucose reduction | 82 | > 7.60 | significant dose dependent glucose reduction |
| CCCc1cnc(N2CCC([C@H](C)Oc3nc4ccc(-c5ccc(S(C)(=O)=O)nc5)nc4s3)CC2)nc1 [Compound 1099, (S)-5-(6-(methylsulfonyl)pyridin-3-yl)-2-(1-(1-(5-propylpyrimidin-2-yl)piperidin-4-yl)ethoxy)thiazolo[5,4-b]pyridine] | significant dose dependent glucose reduction | 81 | > 7.60 | significant dose dependent glucose reduction |
| CCc1cnc(N2CCC([C@H](C)Oc3nc4ccc(-c5ccc(S(C)(=O)=O)nc5)nc4s3)CC2)nc1 [Compound 1106, (S)-2-(1-(1-(5-ethylpyrimidin-2-yl)piperidin-4-yl)ethoxy)-5-(6-(methylsulfonyl)pyridin-3-yl)thiazolo[5,4-b]pyridine] | significant dose dependent glucose reduction | 75 | > 7.60 | significant dose dependent glucose reduction |
| CC(C)c1noc(N2CCC([C@H](C)Oc3nc4ccc(-c5cnc(Cl)nc5)nc4s3)CC2)n1 [Compound 1119, (S)-5-(4-(1-((5-(2-chloropyrimidin-5-yl)thiazolo[5,4-b]pyridin-2-yl)oxy)ethyl)piperidin-1-yl)-3-isopropyl-1,2,4-oxadiazole] | significant dose dependent glucose reduction | 75 | > 7.60 | significant dose dependent glucose reduction |
| CCc1cnc(N2CCC([C@H](C)Oc3nc4ccc(-c5cnc(Cl)nc5)nc4s3)CC2)nc1 [Compound 1135, 2-((S)-1-(1-(5-ethylpyrimidin-2-yl)piperidin-4-yl)ethoxy)-5-(2-chloropyrimidin-5-yl)thiazolo[5,4-b]pyridine] | significant dose dependent glucose reduction | 86 | > 7.60 | significant dose dependent glucose reduction |
